Reference: patent publication US20210346315A1, “COMPOSITION FOR INHIBITION OR TREATMENT OF BRAIN TUMORS OR SYMPTOMS ATTRIBUTABLE THERETO” (ENEOS Corporation, priority 2018, published 2021)

Tests used:
[1] = Intracerebral distribution of astaxanthin or adonixanthin in cynomolgus monkey (HPLC of brain organs); type: in vivo; conditions: 50 mg/kg body weight once daily for 10 days into the stomach, FIG. 5
Protocol: Each of the astaxanthin and the adonixanthin obtained in Preparation Example 1 was weighed, followed by suspension by adding olive oil (product number 150-00276, manufactured by Wako Pure Chemical Industries, Ltd.) to prepare so that each concentration was 10 mg/mL, thus obtaining an astaxanthin dosing solution and an adonixanthin dosing solution. Each dosing solution was prepared at the time of use, and stored on ice and protected from light until administration.
As experimental animals, cynomolgus monkeys were used. […] The dose in each administration was calculated based on the latest body weight at each administration time point (body weight was measured using an electric balance (HP-40K or GP-40K, both of which were manufactured by A&D Company, Limited) on each of the day of initiation of acclimation, the day of end of acclimation, the day of initiation of administration, and before administration on the day 8 of administration). […]
Each of the concentration of adonixanthin in each organ collected from the adonixanthin-administering monkey (concentration relative to the weight of each organ) and the concentration of astaxanthin in each organ collected from the astaxanthin-administering monkey (concentration relative to the weight of each organ) was measured. […]

[2] = system: mouse-derived glioma cell line GL261; assay: Cell proliferative capacity / cell viability of mouse-derived glioma cell line GL261 (CCK-8); type: cell-based; conditions: for average value of cell viability, concentration dependence: 0.1 to 10 μM; for cell viability (proliferation) vs the control group: GL261, after 96 hours, 0.1, 1.0, 5 or 10 μM
Protocol: (§1) As the glioma cell lines, the mouse-derived glioma cell line GL261 (transferred from Graduate School of Health Sciences, Gunma University) and the human-derived glioma cell line U251MG (DS Pharma Biomedical Co., Ltd.) were used. First, the glioma cell lines were seeded in a 96-well plate (FALCON) at 2,000 cells/well. Using Dulbecco's modified Eagle's medium (DMEM) (Nacalai Tesque, Inc.) containing 10% fetal bovine serum (FBS) (Valeant Pharmaceuticals International, Inc.), 100 U/mL penicillin, and 100 μg/mL streptomycin (Meiji Seika Pharma Co., Ltd.), seeded cells were cultured for 24 hours at 37° C. under 5% CO2. Then, the medium was replaced with DMEM containing 10% FBS so that the concentration was 90 μL/well. After the medium replacement, a test solution was further added according to each test group. Specifically, in the control group, 10 μL of PBS containing 0.1% DMSO (Nacalai Tesque, Inc.) was added (n=6). In the temozolomide group, temozolomide (Tokyo Chemical Industry Co., Ltd.) was dissolved in PBS containing 0.1% DMSO to obtain a temozolomide solution. Then, 10 μL of the temozolomide solution was added so that the final concentration of temozolomide was 300 μM (n=6). In the astaxanthin and adonixanthin groups, astaxanthin or adonixanthin was dissolved in PBS containing 0.1% DMSO to obtain an astaxanthin or adonixanthin solution. Then, 10 μL each of the astaxanthin or adonixanthin solution was added so that the final concentration of astaxanthin or adonixanthin was 0.1, 1.0, 5, or 10 μM (n=6). At 72 hours and 96 hours after addition of each test solution, the viable cell count of GL261 and U251MG was measured using cell counting kit-8 (CCK-8) (DOJINDO LABORATORIES). Specifically, using a microplate reader (Varioscan Flash 2.4, Thermo Fisher Scientific K.K.) at the time of addition and 2 hours after addition of CCK-8, the absorbance was measured at 450 nm, and the viable cell count was measured using the absorbance at 650 nm as a reference. For example, in the case of 72-hour treatment, CCK-8 was added 70 hours after addition of the test solution, and the absorbance was measured. The absorbance was measured again 2 hours after addition of CCK-8. The value obtained by subtracting the absorbance immediately after addition of CCK-8 as the background from the absorbance 2 hours after addition of CCK-8 was used as data. In the same manner as in Test Example 1, effects of adonirubin or zeaxanthin on the cell proliferative capacity after 72 hours of a human- or mouse-derived glioma cell line were investigated. As adonirubin, the adonirubin obtained in Preparation Example 1 was used, and as zeaxanthin, Zeaxanthin (manufacturer code ASB-00026504, ChromaDex Corporation) was used. Specifically, the glioma cell lines were seeded in a 96-well plate at 2,000 cells/well. Using DMEM containing 10% FBS, 100 U/mL penicillin, and 100 μg/mL streptomycin, seeded cells were cultured for 24 hours at 37° C. under 5% CO2. Then, the medium was replaced with DMEM containing 10% FBS so that the concentration was 90 μL/well. After the medium replacement, a test solution was further added according to each test group. Specifically, in the control group, 10 μL of PBS containing 0.1% DMSO (Nacalai Tesque, Inc.) was added (n=6). In the temozolomide group, temozolomide was dissolved in PBS containing 0.1% DMSO to obtain a temozolomide solution. Then, 10 μL of the temozolomide solution was added so that the final concentration of temozolomide was 300 μM (n=6). In the adonirubin and zeaxanthin groups, adonirubin or zeaxanthin was dissolved in PBS containing 0.1% DMSO to obtain an adonirubin or zeaxanthin solution. Then, 10 μL each of the adonirubin or zeaxanthin solution was added so that the final concentration of adonirubin or zeaxanthin was 0.1, 1.0, 5, or 10 μM (n=6). At 72 hours after addition of each test solution, the cell proliferative capacity of GL261 and U251MG was evaluated using CCK-8 in the same manner as in Test Example 1.

[3] = system: human-derived glioma cell line U251MG; assay: Cell proliferative capacity / cell viability of human-derived glioma cell line U251MG (CCK-8); type: cell-based; conditions: for cell viability (proliferation) vs the control group: after 96 hours, 0.1, 1.0, 5 or 10 μM
Protocol: as §1

[4] = GL261, after 72 hours, all concentrations (0.1, 1.0, 5 or 10 μM)
[5] = after 72 hours, 0.1, 1.0, 5 or 10 μM
[6] = GL261, after 72 hours, 10 μM group

CC1=C(/C=C/C(C)=C/C=C/C(C)=C/C=C/C=C(C)/C=C/C=C(C)/C=C/C2=C(C)C(=O)C(O)CC2(C)C)C(C)(C)CC(O)C1 (stereo not drawn) [adonixanthin, 3,3′-dihydroxy-β,β-carotene-4-one]
concentration in the brain compared with astaxanthin [1]: transferred into the brain at a higher concentration
concentration in each organ of the brain (transfer into the brain and retention) ([1]; organs collected after blood sampling 4 hours after last administration): transferred into the brain at a high concentration
average value of cell viability, concentration dependence ([2]; GL261, after 72 hours): tends to concentration-dependently decrease
cell proliferative capacity vs the control group [2, 4]: significantly inhibited
cell viability (proliferation) vs the control group ([2]; FIG. 2): significantly inhibited at any concentration
proliferation inhibition compared with the astaxanthin group ([2]; GL261, after 96 hours, FIG. 2): inhibited at a higher level
cell proliferative capacity vs the control group [3, 5]: tends to be concentration-dependently inhibited
cell proliferative capacity vs the control group ([3]; after 72 hours, 1, 5, and 10 μM groups): significantly inhibited
cell viability (proliferation) vs the control group ([3]; FIG. 1): significantly inhibited at any concentration
proliferation inhibition compared with the astaxanthin group ([3]; after 96 hours, FIG. 1): inhibited at a higher level

CC1=C(/C=C/C(C)=C/C=C/C(C)=C/C=C/C=C(C)/C=C/C=C(C)/C=C/C2=C(C)C(=O)C(O)CC2(C)C)C(C)(C)CC(O)C1=O (stereo not drawn) [astaxanthin, 3,3′-dihydroxy-β,β-carotene-4,4′-dione]
cell proliferative capacity vs the control group [2, 6]: significantly inhibited
average value of cell viability, concentration dependence ([2]; GL261, after 72 hours): tends to concentration-dependently decrease
cell viability (proliferation) vs the control group ([2]; FIG. 2): significantly inhibited at any concentration
cell proliferative capacity vs the control group [3, 5]: tends to be concentration-dependently inhibited
cell viability (proliferation) vs the control group ([3]; FIG. 1): significantly inhibited at any concentration

CC1=C(/C=C/C(C)=C/C=C/C(C)=C/C=C/C=C(C)/C=C/C=C(C)/C=C/C2=C(C)C(=O)C(O)CC2(C)C)C(C)(C)CCC1=O (stereo not drawn) [adonirubin, 3-hydroxy-β,β-carotene-4,4′-dione]
proliferation inhibition compared with the zeaxanthin group ([2]; GL261, after 72 hours): inhibited at a higher level
cell proliferative capacity vs the control group [2, 4]: significantly inhibited at any concentration
cell proliferative capacity vs the control group [3, 5]: tends to be inhibited at any concentration

CC1=C(/C=C/C(C)=C/C=C/C(C)=C/C=C/C=C(C)/C=C/C=C(C)/C=C/C2=C(C)C[C@@H](O)CC2(C)C)C(C)(C)C[C@H](O)C1 [zeaxanthin, β,β-carotene-3,3′-diol]
cell proliferative capacity vs the control group [2, 6]: significantly inhibited
cell proliferative capacity vs the control group [2, 4]: tends to be inhibited at any concentration
proliferation inhibition compared with the adonirubin group ([3]; after 72 hours): inhibited at a higher level
cell proliferative capacity vs the control group [3, 5]: significantly inhibited at any concentration
